{"source": "patent US20220409576A1", "about": "“NANO-PARTICULATE COMPOSITIONS FOR STIMULATING HOST INNATE IMMUNE RESPONSES FOR THERAPEUTIC APPLICATIONS” (priority 2019, published 2022)", "key": {"intracellular S. aureus": {"system": "intracellular S. aureus", "experiment": "Bactericidal activity of RAW 264.7 macrophages against intracellular S. aureus (antibiotic protection assay, viable colony number)", "type": "cell-based, Staphylococcus aureus", "conditions": "cells with IONPs 3 mg/mL + VC 500 μM plus chelator BIP 500 μM or scavenger THI 200 mM, FIG. 3C", "protocol": "A. The quantification of ROS generation in the RAW 264.7 cells treated with varying concentration of IONPs (0-3 mg/mL). B. The colony number of viable bacteria (S. aureus) in the lysed RAW 264.7 macrophages treated with varying concentration of IONPs (0-3 mg/mL) following the exposure of live S. aureus.\n(A-B) The quantification of ROS generation (A) and viable colony number of S. aureus (B) in the RAW 264.7 cells treated with VC (500 μM) alone, IONP (3 mg/mL) alone, or IONP (3 mg/mL)+VC (500 μM). (C-D) The quantification of ROS generation (C) and viable colony number of S. aureus (D) in the RAW 264.7 cells treated with IONP (3 mg/mL) alone, or IONP (3 mg/mL)+H2O2 (100 μM). E. Representative images of surviving S. aureus colony on agar plates from lysed RAW264.7 macrophages treated with H2O2 (100 μM), IONP (3 mg/mL), or IONP+H2O2. N=3-5 per group, *p<0.05\nA. The intracellular level of ferrous iron (Fe2+) in RAW 264.7 cells treated with IONPs (3 mg/mL) alone, IONPs with VC (500 μM), or IONPs with VC and BIP (iron chelator, 500 μM). […] The bactericidal activity of RAW 264.7 cells treated with IONPs (3 mg/mL) with VC (500 μM), IONPs with VC and BIP (500 μM), or IONPs with VC and TIH (200 mM), assessed by antibiotic protection assay. *p<0.05, N=3-5 per group. […]"}, "RAW 264.7 cells": {"system": "RAW 264.7 cells", "experiment": "Intracellular hydroxyl radical generation in RAW 264.7 cells", "type": "cell-based", "conditions": "RAW 264.7 cells with IONPs 3 mg/mL + VC 500 μM, BIP 500 μM, 24 h, FIG. 3B", "protocol": "A. The intracellular level of ferrous iron (Fe2+) in RAW 264.7 cells treated with IONPs (3 mg/mL) alone, IONPs with VC (500 μM), or IONPs with VC and BIP (iron chelator, 500 μM). B. The intracellular level of hydroxyl radical concentration in RAW 264.7 cells treated with IONPs (3 mg/mL) alone, IONPs with VC (500 μM), or in combination with BIP (500 μM) for 24 h. C. The bactericidal activity of RAW 264.7 cells treated with IONPs (3 mg/mL) with VC (500 μM), IONPs with VC and BIP (500 μM), or IONPs with VC and TIH (200 mM), assessed by antibiotic protection assay. *p<0.05, N=3-5 per group.\nTo further determine if the VC-mediated ROS generation and bactericidal activity were associated with a Fenton reaction due to increased release of Fe^2+, the levels of Fe^2+ were compared between RAW 264.7 cells treated with IONPs alone and IONPs with VC. […] Among various forms of ROS, hydroxyl radical ([…]) is highly cytotoxic by causing oxidative damage to DNA and cell membrane. In the Fenton reaction-mediated generation of ROS, the oxidation of Fe^2+ by hydrogen peroxide (H2O2) produces highly reactive hydroxyl radical."}}}
{"smiles": "c1ccc(-c2ccccn2)nc1", "note": "[BIP]", "values": [{"measurement": "IONPs/VC-induced bactericidal activity of RAW 264.7 cells", "setting": "intracellular S. aureus", "result": "decrease in bactericidal activity"}, {"measurement": "IONPs and VC-induced generation of hydroxyl radicals", "setting": "RAW 264.7 cells", "result": "significantly decreased"}]}
